Experimental data as given in publication PMC9052545 (RSC Advances, 2020).

biological target: HER2-Fc (HER2) (Homo sapiens, UniProt P04626); conditions: SEM, n = 3

Kd [µM] | Substance
0.5 ± 0.15 | FN3 with RKPKSG grafted at residues 51-56 (His-tagged) [FN3-p4.4]
0.068 ± 0.014 | FN3 with YCICCM grafted at residues 51-56 (His-tagged) [FN3-p1.M.1]
0.28 ± 0.023 | FN3 with YCGCEM grafted at residues 51-56 (His-tagged) [FN3-p1]
0.11 ± 0.028 | FN3 with YCPVCM grafted at residues 51-56 (His-tagged) [FN3-p1.M.3]
